Laboratory results: ChEMBL document CHEMBL3217748, “Chemical synthesis and biological study of 4-carboxymethyl-epiafzelechin acid, an osteoprotective compound from the rhizomes of Drynaria fortunei” (2012)
Activity calls are given as the source filed them. The calls are words filed in the database; no cut-off is given here.

Experiments:
UMR106 [1] = experiment: Induction of rat UMR106 cell proliferation after 24 hrs by MTS assay in presence of estrogen receptor antagonist ICI 182,780; assay type: functional, cell-based
UMR106 [2] = experiment: Induction of rat UMR106 cell differentiation after 24 hrs by ALP assay in presence of estrogen receptor antagonist ICI 182,780; assay type: functional, cell-based
UMR106 [3] = experiment: Induction of rat UMR106 cell proliferation after 24 hrs by MTS assay; assay type: functional, cell-based
[4] = Induction of rat UMR106 cell differentiation at 10^-10 M after 24 hrs by ALP assay relative to control; assay type: functional
[5] = biological target: Estrogen receptor beta (Homo sapiens) (UniProt Q92731); experiment: Transactivation of human ER-beta transfected in rat UMR106 cells at 10^-14 to 10^-6 M after 24 hrs by dual luciferase reporter gene assay; assay type: cell-based
UMR106 [6] = experiment: Induction of rat UMR106 cell proliferation at 10^-8 M after 24 hrs by MTS assay in presence of estrogen receptor antagonist ICI 182,780; assay type: functional, cell-based
UMR106 [7] = experiment: Induction of rat UMR106 cell proliferation assessed as increase in cell number at 10^-8 M after 24 hrs by MTS assay; assay type: functional, cell-based
UMR106 [8] = experiment: (§1) Induction of rat UMR106 cell differentiation at 10^-8 M after 24 hrs by ALP assay relative to control; assay type: functional
[9] = Induction of rat UMR106 cell proliferation assessed as increase in cell number at 10^-10 to 10^-8 M after 24 hrs by MTS assay relative to control; assay type: functional
[10] = Induction of rat UMR106 cell differentiation at 10^-6 M after 24 hrs by ALP assay relative to control; assay type: functional
[11] = as §1; assay type: functional

Estrogen receptor beta (Homo sapiens), sequence (Q92731 whole entry): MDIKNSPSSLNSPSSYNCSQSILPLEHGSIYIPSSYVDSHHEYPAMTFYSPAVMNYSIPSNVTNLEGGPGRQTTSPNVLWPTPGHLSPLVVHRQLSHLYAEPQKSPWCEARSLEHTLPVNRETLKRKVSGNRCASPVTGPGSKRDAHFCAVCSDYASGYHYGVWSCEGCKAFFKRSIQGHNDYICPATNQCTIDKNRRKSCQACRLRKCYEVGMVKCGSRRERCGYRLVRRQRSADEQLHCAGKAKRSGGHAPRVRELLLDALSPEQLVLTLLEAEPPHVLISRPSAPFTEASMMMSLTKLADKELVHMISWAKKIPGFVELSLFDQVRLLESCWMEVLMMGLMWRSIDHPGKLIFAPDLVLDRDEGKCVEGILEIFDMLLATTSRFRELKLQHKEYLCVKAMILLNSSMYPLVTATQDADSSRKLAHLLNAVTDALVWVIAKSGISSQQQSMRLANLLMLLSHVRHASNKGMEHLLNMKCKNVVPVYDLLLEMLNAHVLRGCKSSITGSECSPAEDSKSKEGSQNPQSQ

| SMILES | Activity (UMR106 [1]) | Activity (UMR106 [2]) | Activity (UMR106 [3]) | Activity [4] [%] | Activity [5] | Activity (UMR106 [6]) | Activity (UMR106 [7]) | Activity (UMR106 [8]) | fold change (FC) [9] | Activity [10] [%] | Activity [11] [%] |
| --- | --- | --- | --- | --- | --- | --- | --- | --- | --- | --- | --- |
| O=C1C[C@H]2c3c(O)cc(O)cc3O[C@H](c3ccc(O)cc3)[C@H]2O1 | inactive | Active | Dose-dependent effect | 10 | inactive |  |  |  |  |  |  |
| C[C@]12CC[C@@H]3c4ccc(O)cc4CC[C@H]3[C@@H]1CC[C@@H]2O |  | Active | Dose-dependent effect |  |  | inactive | Active | Active |  |  |  |
| O=C(O)C[C@H]1c2c(O)cc(O)cc2O[C@H](c2ccc(O)cc2)[C@@H]1O | inactive | Active | Dose-dependent effect | 18 | inactive |  |  |  | 1.4 | 18 | 14 |
